Reference: PubChem BioAssay (NCI)
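Dose response: 5 concentrations. Exposure: 48 h. Format: 96-well plates. Endpoint: linear interpolation; highest concentration if not reached. Here, GI50 denotes the concentration required for 50% inhibition of growth. TGI is the concentration that stops growth completely.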 *1 amine or outer side, *2 acyl side, *3 side chain or, on linkers, in order; H or OH if unused. Where a SMILES comes first, the peptide text is derived from it. Bridges are numbered along the chain shown (N, C = ends). [ ]: non-standard residue; d: D form. ξ: configuration not given here. X4 = CCC(C)C(N[*:1])C(O)CC(=O)O[C@H](C(=O)C(C)C(=O)[*:2])C(C)C; NMeY = CN[C@@H](Cc1ccc(O)cc1)C(=O)O; X9 = O=C([C@@H]1CC(O)CN1[*:1])[*:2]; ξNMeL = CNC(CC(C)C)C(=O)O; ξT = CC(O)C(N)C(=O)O

Tests used:
Assay in all cases: NCI anticancer screen, dose series, 48 h
[1] = system: DMS 273 small cell lung
[2] = system: XF 498 CNS
[3] = system: RXF-631 renal
[4] = system: SNB-78 CNS
[5] = system: DMS 114 small cell lung
[6] = system: MDA-N
[7] = system: HOP-18 NSCLC

CCc1ccccc1NC(=O)CCc1nc(=S)[nH][nH]1
TGI [1]: > 100 µM | TGI [2]: > 100 µM | TGI [3]: > 100 µM | TGI [4]: > 100 µM | TGI [5]: > 100 µM

CC1(C)CCSC(/C=C/c2ccccc2)=N1
TGI [6]: 24.8 µM

O=C1C(NCCO)=C(N2CC2)C(=O)C(NCCO)=C1N1CC1
TGI [1]: > 40 µM | TGI [2]: > 100 µM | TGI [6]: > 100 µM | TGI [4]: > 100 µM | TGI [5]: > 50.9 µM | TGI [7]: > 100 µM

COc1ccccc1NC(=O)CC(=O)n1nc(C)c(N=Nc2ccccc2F)c1C
TGI [1]: > 100 µM | TGI [2]: > 83.3 µM | TGI [4]: > 31.6 µM | TGI [5]: > 100 µM | TGI [7]: > 100 µM

O=C(CC(=O)Nc1ccc(Cl)cc1)NNCC(=O)Nc1nc(-c2ccccc2)cs1
TGI [1]: > 100 µM | TGI [2]: > 100 µM | TGI [4]: > 100 µM | TGI [5]: > 100 µM | TGI [7]: > 100 µM

CCNC(=O)C(O)C1(O)CCC2[C@@H]3CCC4=CC(=O)C=C[C@]4(C)C3[C@@H](O)C[C@@]21C (some centres undefined)
TGI [1]: > 100 µM | TGI [2]: > 100 µM | TGI [3]: > 100 µM | TGI [4]: > 100 µM | TGI [5]: > 100 µM | TGI [7]: > 100 µM

Cc1ccccc1C(C#N)/C(=N/NC(=O)c1cc2ccccc2cc1O)C(=O)Nc1cccc(Cl)c1 (centres undefined)
TGI [1]: 32.5 µM | TGI [2]: 73.3 µM | TGI [4]: > 100 µM | TGI [5]: 51.8 µM | TGI [7]: 73.4 µM

COC(=O)c1nc(-c2ccc(Cl)c(Cl)c2)nc2ccccc12
TGI [1]: > 100 µM | TGI [2]: 19.7 µM | TGI [3]: > 100 µM | TGI [4]: > 100 µM | TGI [5]: > 100 µM | TGI [7]: 4.99 µM

CCC(C)C1NC(=O)C(NC(=O)C(CC(C)C)N(C)C(=O)[C@@H]2CC(O)CN2)C(C)OC(=O)[C@H](Cc2ccc(OC)cc2)N(C)C(=O)[C@@H]2CCCN2C(=O)[C@H](CC(C)C)NC(=O)C(C)C(=O)[C@H](C(C)C)OC(=O)CC1O (some centres undefined) (H-[X9][ξNMeL][ξT][X4]LP[NMeY](Me); ester 3-C)
TGI [6]: 0.106 µM

COc1ccc2[nH]c3c(cnn4cnnc34)c2c1
TGI [1]: > 100 µM | TGI [3]: > 100 µM | TGI [5]: > 100 µM | TGI [7]: > 100 µM

C/C(=N\NC(=S)N(C)C)c1ncc[nH]1
TGI [2]: > 100 µM | TGI [5]: 39.8 µM | TGI [7]: > 100 µM

COc1ncnc2c(NC3OC(CO)C(O)C3O)ncnc12 (centres undefined)
TGI [1]: 5.74 µM | TGI [2]: 7.84 µM | TGI [6]: 22.8 µM | TGI [3]: 15.4 µM | TGI [4]: 71.9 µM | TGI [5]: 1.09 µM

CC(=O)/C=C1/c2ccccc2N(C(C)=O)C1O (centres undefined)
TGI [1]: > 100 µM | TGI [4]: > 100 µM | TGI [5]: > 100 µM | TGI [7]: > 100 µM

CCCOc1ccc(/C=C\c2cc(OC)c(OC)c(OC)c2)cc1
TGI [1]: > 100 µM | TGI [2]: > 100 µM | TGI [3]: > 100 µM | TGI [4]: > 100 µM | TGI [5]: > 100 µM | TGI [7]: > 100 µM

Cc1cc2c(cn1)C(=O)OCC2
TGI [2]: > 100 µM | TGI [4]: > 100 µM | TGI [5]: > 100 µM | TGI [7]: > 100 µM

CCCOc1ccc(/C=C/c2cc(OC)c(OC)c(OC)c2)cc1
TGI [1]: 11.7 µM | TGI [2]: 84.9 µM | TGI [3]: > 100 µM | TGI [4]: > 100 µM | TGI [7]: > 100 µM

CCOC(=O)/C(C#N)=C(O)/C(=C/c1ccccc1Cl)NC(=O)c1ccccc1
TGI [1]: > 100 µM | TGI [4]: > 100 µM | TGI [5]: > 100 µM | TGI [7]: > 100 µM

C[C@]12CC[C@H]3[C@@H](CCC4=CC(=O)CC[C@@H]43)[C@@H]1CC[C@@H]2OC1(O)C(=O)c2ccccc2C1=O
TGI [6]: 35.1 µM

CN1C(c2ccccc2)CC(=Nc2ccccc2)CC1c1ccccc1 (centres undefined)
TGI [1]: 22 µM | TGI [3]: 67.6 µM | TGI [4]: 37.2 µM

CCOC(=O)C1CCC/C1=N\N=C(N)N (centres undefined) (tested in a mixture with another compound)
TGI [6]: > 100 µM

CC[C@@]1(O)C(=O)NCc2c1cc1n(c2=O)Cc2cc3cc4c(cc3nc2-1)OCO4
GI50 [6]: 3.23 µM | TGI [6]: > 100 µM

CCCCCCCCCCCCCCCCC(C(=O)O)C(O)(CC(=O)O)C(=O)O (centres undefined)
TGI [6]: > 100 µM

Cc1cccc(C(C)(C)C)c1NC(=O)CC1C(=O)Nc2ccccc2S1=O (centres undefined)
TGI [1]: > 100 µM | TGI [2]: > 100 µM | TGI [3]: > 100 µM | TGI [4]: > 100 µM

Cc1cccc(C(C)O)n1 (centres undefined)
TGI [6]: > 100 µM

N=C(c1ccccc1)N1CCCCC1
TGI [1]: > 100 µM | TGI [4]: > 100 µM | TGI [5]: > 100 µM | TGI [7]: > 100 µM

CC1C(=O)N=C2C(=CN(Cc3ccccc3)c3ccccc32)C(=O)N1C (centres undefined)
TGI [6]: > 100 µM

O=c1c2cc(Br)ccc2oc2ccc(Br)cc12
TGI [6]: > 100 µM

CC(C)=CC(=O)Cc1nc2ccccc2[nH]c1=O
TGI [1]: > 100 µM | TGI [3]: > 100 µM | TGI [4]: > 100 µM | TGI [7]: > 100 µM

C/C(=N\NC(N)=S)c1ccc(/C(C)=N/NC(N)=S)cc1
TGI [2]: > 100 µM | TGI [3]: > 100 µM | TGI [5]: > 100 µM | TGI [7]: > 100 µM

O=[N+]([O-])c1ccc(Cc2nc3ccccc3s2)cc1
TGI [1]: > 100 µM | TGI [2]: > 100 µM | TGI [4]: > 100 µM | TGI [5]: > 100 µM | TGI [7]: > 100 µM

CC1CCC2(OC1)OC1CC3C4CC=C5CC(OC6OC(CO)C(OC7OC(C)C(OC8OC(C)C(O)C(O)C8O)C(O)C7O)C(O)C6OC6OC(C)C(O)C(O)C6O)CCC5(C)C4CCC3(C)C1C2C (centres undefined)
TGI [6]: 1.43 µM

CC1(C)OC2C(CO)OC(n3ccc(=O)[nH]c3=O)C2O1 (centres undefined)
TGI [6]: > 100 µM

C/C(=N\NC(N)=S)c1ccc2c(c1)OCO2
TGI [2]: > 100 µM | TGI [3]: > 100 µM | TGI [4]: > 100 µM | TGI [5]: > 100 µM | TGI [7]: > 100 µM

O=C(O)CC(Cc1ccc2c(c1)OCO2)C(=O)O (centres undefined)
TGI [6]: > 100 µM

COc1ccc(C2(CN(C)C)COc3cc(OC)c(OC)cc3C2=O)cc1OC (centres undefined)
TGI [2]: > 100 µM | TGI [3]: > 100 µM | TGI [4]: > 100 µM | TGI [5]: 78.3 µM | TGI [7]: > 100 µM

Clc1ccc(C2=Nc3ccccc3SC(c3ccc(Cl)c(Cl)c3)C2)c(Cl)c1 (centres undefined)
TGI [1]: 30 µM | TGI [2]: 26 µM | TGI [4]: 35.5 µM | TGI [5]: 27.1 µM

O=S(=O)(O)C(F)(F)C(F)(F)C(F)(F)C(F)(F)F
TGI [1]: > 100 µM | TGI [2]: > 100 µM | TGI [5]: > 100 µM | TGI [7]: > 100 µM

Cc1cc2c(C(C)C)c(O)c(O)c3coc(/c1=c1/c(C)cc4c(C(C)C)c(=O)c(=O)c5coc1c45)c32
TGI [1]: 13.8 µM | TGI [2]: 17.4 µM | TGI [3]: 22 µM | TGI [4]: 25.2 µM | TGI [5]: 6.48 µM
